{
  "source": "patent US4558066A",
  "about": "“Treatment and prevention of ocular hypertension” (priority 1984, dated 1985)",
  "key": {"norepinephrine responses": {"system": "norepinephrine responses", "set-up": "species or system mongrel dogs", "details": "dog, in vivo", "description": "(§1) In the present studies, the cardiovascular and intraocular pressure effects of Timoptic (Timolol) a Merck β-blocker marketed for treatment of glaucoma, and ±2-[(3,4-methylenedioxy)phenethyl]-5-[(3-carboxamido-4-hydroxy)-α-hydroxybenzyl]pyrrolidine were evaluated in anesthetized dogs to determine if the compounds exert systemic effects after ocular administration.\n(§2) Mongrel dogs were anesthetized with sodium pentobarbital (36 mg/kg, i.v.). The trachea was intubated and the dog respired with room air if necessary (20 cc/kg, 16x/min). A femoral vein was cannulated for injection of drugs and a femoral artery for measurement of systolic blood pressure. Heart rate was recorded by a cardiotachometer triggered by the R-wave of a limb lead II ECG. Intraocular pressure measurements were made with a Digilab model 30-D Pneuma-Tonometer.\n(§3) Timolol and ±2-[(3,4-methylenedioxy)phenethyl]-5-[(3-carboxamido-4-hydroxy)-α-hydroxybenzyl]pyrrolidine were dissolved in distilled water. Isoproterenol and norepinephrine were dissolved in normal saline.\n(§4) Isoproterenol was administered i.v. at half-log interval doses from 0.0158 μg/kg to 0.5 μg/kg."}, "isoproterenol responses": {"system": "isoproterenol responses", "set-up": "species or system mongrel dogs", "details": "dog, in vivo", "description": "as §1, §2, §3, §4"}, "[1]": {"set-up": "species or system mongrel dogs", "details": "dog, in vivo", "description": "as §1, §2, §3, §4"}, "intraocular pressure [2]": {"system": "intraocular pressure", "assay": "Reduction of intraocular pressure in rabbits (pneuma-tonometer)", "assay_type": "in vivo, normal albino white New Zealand rabbits", "details": "rabbit", "description": "Two groups of normal albino white New Zealand rabbits were used for this study.\nExperimental group: 8 animals\nAt time 0, intraocular pressure of both eyes of each animal in control and experimental groups was determined.\nAll animals received the treatment either with saline (control group) or the tested compound (experimental group) immediately after 0 hour intraocular pressure reading. Control group received 50 μl of vehicle in both eyes. Experimental animals received 50 μl of vehicle in the left eyes and 50 μl of 1% solution of tested compound in the right eyes.\nIntraocular pressure was measured at 30 minutes, 1, 2, and 4 hours.\nThe effects of tested drug on intraocular pressure of the rabbit was determined using a Digilab Model 30D pneuma-tonometer. Initial IOP readings were obtained in all animals after the administration of 50 μl of 0.5% Opthaine (proparacaine hydrochloride). A group of 4 rabbits served as controls and were treated with 50 μl of saline in both eyes. Eight additional rabbits received 50 μl of test drug in the right eye, and 50 μl of drug vehicle was administered in the contralateral left eye. IOP readings were made 30 minutes, 1 hours, 2 hours, and 4 hours after drug administration.\nThis procedure permitted the comparison of drug treated eye with the contralateral vehicle treated eye, and also with saline treated eye. For purposes of statistical analysis comparisons were made between the drug treated IOP values and vehicle treated contralateral eyes and also the saline treated IOP values."}, "eye": {"system": "eye", "set-up": "species or system mongrel dogs", "details": "dog, in vivo"}, "intraocular pressure [3]": {"system": "intraocular pressure", "assay": "Intraocular pressure in anesthetized dogs after ocular administration", "assay_type": "in vivo, mongrel dogs", "details": "anesthetized dog", "description": "as §1, §2, §3, §4"}, "[4]": {"details": "cited from earlier work"}, "[5]": {"details": "topical; PDR; cited from earlier work"}, "[6]": {"details": "administered to the eye at 0.5, 1 and 2%"}},
  "note": "Structures can show the parent of a compound that is named as a salt.",
  "data": [
    {"smiles": "NC(=O)c1cc(C(O)C2CCC(CCc3ccc4c(c3)OCO4)N2)ccc1O", "note": "(racemic) [±2-[(3,4-methylenedioxy)phenethyl]-5-[(3-carboxamido-4-hydroxy)-α-hydroxybenzyl]pyrrolidine]", "values": [
      {"measurement": "Dose relation of inhibition of norepinephrine responses", "setting": "norepinephrine responses", "value": "not dose related"},
      {"measurement": "Inhibition of norepinephrine responses", "setting": "norepinephrine responses", "value": "some inhibition"},
      {"measurement": "Dose relation of inhibition of isoproterenol responses", "setting": "isoproterenol responses", "value": "not dose related"},
      {"measurement": "Inhibition of isoproterenol responses", "setting": "isoproterenol responses", "value": "some inhibition"},
      {"measurement": "Baseline blood pressure compared with control dogs", "setting": "[1]", "value": "differed little from control dogs"},
      {"measurement": "Baseline heart rate compared with control dogs", "setting": "[1]", "value": "differed little from control dogs"},
      {"measurement": "Systemic effect (conclusion)", "setting": "[1]", "value": "modest, if any systemic effect"},
      {"measurement": "Intraocular pressure, Experimental O.D. (right, treated eye)", "setting": "intraocular pressure [2]; 0 time reading before dosing of 50 μl of 1% solution (baseline), control O.D. 18.8, contralateral vehicle eye 18", "value": 17.6, "unit": "mmHg"},
      {"measurement": "Effect on intraocular pressure in right (treated) eyes", "setting": "intraocular pressure [2]; 1% solution", "value": "decreased significantly intraocular pressure"},
      {"measurement": "Intraocular pressure, Experimental O.D. (right, treated eye)", "setting": "intraocular pressure [2]; 50 μl of 1% solution, 30 min, control O.D. 18.3, contralateral vehicle eye 18.1", "value": 18.9, "unit": "mmHg"},
      {"measurement": "Intraocular pressure, Experimental O.D. (right, treated eye)", "setting": "intraocular pressure [2]; 50 μl of 1% solution, 1 hour, control O.D. 19.5, contralateral vehicle eye 19.8", "value": 17.1, "unit": "mmHg"},
      {"measurement": "Intraocular pressure, Experimental O.D. (right, treated eye)", "setting": "intraocular pressure [2]; 50 μl of 1% solution, 2 hours, control O.D. 19.8, contralateral vehicle eye 17.3", "value": 14.4, "unit": "mmHg"},
      {"measurement": "Intraocular pressure, Experimental O.D. (right, treated eye)", "setting": "intraocular pressure [2]; 50 μl of 1% solution, 4 hours, control O.D. 19.8, contralateral vehicle eye 18.8", "value": 15.5, "unit": "mmHg"},
      {"measurement": "Eye irritation", "setting": "eye", "value": "no irritation to the eye"},
      {"measurement": "Decrease of IOP relative to Timolol", "setting": "intraocular pressure [3]; [6]", "value": "to a lesser extent than Timolol"},
      {"measurement": "Effect on intraocular pressure", "setting": "intraocular pressure [3]; [6]", "value": "decreased IOP"},
      {"measurement": "Effect on intraocular pressure (conclusion)", "setting": "intraocular pressure [3]; at the doses tested", "value": "lowered intraocular pressure"}
    ]},
    {"smiles": "CC(C)(C)NC[C@H](O)COc1nsnc1N1CCOCC1", "note": "[Timolol]", "values": [
      {"measurement": "Inhibition of i.v. (systemic) isoproterenol challenges", "setting": "isoproterenol responses", "value": "markedly inhibited"},
      {"measurement": "Systemic absorption following ocular administration (indicated by inhibition of isoproterenol challenges)", "setting": "isoproterenol responses", "value": "readily absorbed systemically following ocular administration"},
      {"measurement": "Effect on baseline blood pressure", "setting": "[1]", "value": "marked decreases"},
      {"measurement": "Effect on baseline heart rate", "setting": "[1]", "value": "marked decreases"},
      {"measurement": "Time post-dose to nadir of blood pressure", "setting": "[1]", "value": "≤ 90", "unit": "min"},
      {"measurement": "Time post-dose to nadir of heart rate", "setting": "[1]", "value": "≤ 90", "unit": "min"},
      {"measurement": "Effect on intraocular pressure", "setting": "intraocular pressure [3]; administered to the eye at 0.5%", "value": "significant decreases in intraocular pressure"},
      {"measurement": "Effect on cardiac failure", "setting": "[4]; congestive heart failure patients, ocular application", "value": "intensify cardiac failure in congestive heart failure patients"},
      {"measurement": "Systemic absorption after ocular application", "setting": "[4]; human, in vivo", "value": "absorbed systemically after ocular application"},
      {"measurement": "Effect on bronchospasm", "setting": "[4]; patients suffering from brochospastic disorders, ocular application", "value": "brochospasm in patients suffering from brochospastic disorders"}
    ]},
    {"smiles": "CC(C)(C)NC[C@H](O)COc1nsnc1N1CCOCC1", "note": "[timolol maleate]", "values": [
      {"measurement": "Systemic side effects when applied topically", "setting": "[5]", "value": "can cause bronchospastic disease, bradyarrhythmia, cardiogenic shock, cardiac failure, etc."}
    ]}
  ]
}
